{
  "source": "ChEMBL document CHEMBL1130485",
  "about": "“Novel low molecular renin inhibitors which show good oral blood pressure lowering effects in marmosets” (Bioorg Med Chem Lett, 1997)",
  "key": {"Renin": {"biological_target": "T1, Renin (Homo sapiens, UniProt P00797)", "T1 sequence (P00797 whole entry)": "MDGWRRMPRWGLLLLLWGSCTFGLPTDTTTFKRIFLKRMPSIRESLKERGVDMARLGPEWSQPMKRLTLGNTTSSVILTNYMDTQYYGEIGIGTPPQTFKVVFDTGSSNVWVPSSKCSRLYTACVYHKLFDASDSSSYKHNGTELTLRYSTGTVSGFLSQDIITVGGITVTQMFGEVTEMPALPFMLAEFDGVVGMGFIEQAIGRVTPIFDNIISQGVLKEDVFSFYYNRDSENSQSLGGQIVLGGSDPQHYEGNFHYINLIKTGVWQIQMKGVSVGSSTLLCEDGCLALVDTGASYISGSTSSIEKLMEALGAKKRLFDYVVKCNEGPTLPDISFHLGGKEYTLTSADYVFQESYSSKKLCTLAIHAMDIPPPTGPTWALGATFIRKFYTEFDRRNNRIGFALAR", "assay": "In vitro renin inhibitory effect was evaluated for plasma renin activity (PRA) of human plasma, Expressed as IC50", "assay_type": "cell-free"}, "[1]": {"assay": "In vivo blood pressure lowering effects in salt depleted conscious marmosets was determined when a dose of 10mg/Kg, po. at 0.5 hr", "assay_type": "functional, Callitrichinae"}, "[2]": {"assay": "In vivo blood pressure lowering effects in salt depleted conscious marmosets was determined when a dose of 10mg/Kg, po. at 3h", "assay_type": "functional, Callitrichinae"}, "[3]": {"assay": "In vivo blood pressure lowering effects in salt depleted conscious marmosets was determined when a dose of 10mg/Kg, po. at 1 hr", "assay_type": "functional, Callitrichinae"}, "[4]": {"biological_target": "T2, Angiotensin-converting enzyme (Homo sapiens, UniProt P12821)", "T2 sequence (P12821 whole entry)": "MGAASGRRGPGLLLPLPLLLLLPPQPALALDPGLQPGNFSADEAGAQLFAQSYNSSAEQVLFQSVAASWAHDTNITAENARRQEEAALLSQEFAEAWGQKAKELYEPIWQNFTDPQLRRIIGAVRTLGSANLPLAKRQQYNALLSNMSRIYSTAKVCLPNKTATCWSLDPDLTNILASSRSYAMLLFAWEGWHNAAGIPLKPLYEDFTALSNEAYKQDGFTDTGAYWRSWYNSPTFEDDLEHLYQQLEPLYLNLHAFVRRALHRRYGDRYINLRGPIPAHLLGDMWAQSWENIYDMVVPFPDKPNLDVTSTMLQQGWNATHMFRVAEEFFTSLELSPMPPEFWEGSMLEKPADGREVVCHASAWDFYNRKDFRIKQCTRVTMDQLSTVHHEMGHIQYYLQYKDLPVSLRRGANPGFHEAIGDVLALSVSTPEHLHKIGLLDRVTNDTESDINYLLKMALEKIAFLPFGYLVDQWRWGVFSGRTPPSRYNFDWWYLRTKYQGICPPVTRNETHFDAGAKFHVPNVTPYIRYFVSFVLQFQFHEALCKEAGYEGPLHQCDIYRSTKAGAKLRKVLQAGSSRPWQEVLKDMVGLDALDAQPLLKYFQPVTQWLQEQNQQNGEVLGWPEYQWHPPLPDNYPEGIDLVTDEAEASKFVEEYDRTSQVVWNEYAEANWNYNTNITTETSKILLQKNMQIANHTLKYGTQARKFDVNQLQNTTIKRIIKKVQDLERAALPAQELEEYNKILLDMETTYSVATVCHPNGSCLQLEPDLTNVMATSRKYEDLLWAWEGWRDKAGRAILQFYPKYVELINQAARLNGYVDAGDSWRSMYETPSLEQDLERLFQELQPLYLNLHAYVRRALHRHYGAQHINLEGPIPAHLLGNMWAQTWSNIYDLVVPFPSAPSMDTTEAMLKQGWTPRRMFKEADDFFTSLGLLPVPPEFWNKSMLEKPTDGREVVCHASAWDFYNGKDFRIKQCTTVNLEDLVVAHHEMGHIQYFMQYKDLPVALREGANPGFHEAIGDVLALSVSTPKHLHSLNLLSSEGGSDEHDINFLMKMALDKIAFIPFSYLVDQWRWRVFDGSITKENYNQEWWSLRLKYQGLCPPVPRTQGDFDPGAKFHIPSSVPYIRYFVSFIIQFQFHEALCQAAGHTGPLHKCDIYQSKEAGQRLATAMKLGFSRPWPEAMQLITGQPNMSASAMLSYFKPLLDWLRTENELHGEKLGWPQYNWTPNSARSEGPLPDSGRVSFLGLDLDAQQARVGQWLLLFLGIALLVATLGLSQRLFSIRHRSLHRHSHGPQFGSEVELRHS", "assay": "Inhibitory activity against ACE human, expressed as IC50"}, "Pepsin A": {"biological_target": "Pepsin A (Sus scrofa, UniProt P00791)", "sequence (P00791 whole entry)": "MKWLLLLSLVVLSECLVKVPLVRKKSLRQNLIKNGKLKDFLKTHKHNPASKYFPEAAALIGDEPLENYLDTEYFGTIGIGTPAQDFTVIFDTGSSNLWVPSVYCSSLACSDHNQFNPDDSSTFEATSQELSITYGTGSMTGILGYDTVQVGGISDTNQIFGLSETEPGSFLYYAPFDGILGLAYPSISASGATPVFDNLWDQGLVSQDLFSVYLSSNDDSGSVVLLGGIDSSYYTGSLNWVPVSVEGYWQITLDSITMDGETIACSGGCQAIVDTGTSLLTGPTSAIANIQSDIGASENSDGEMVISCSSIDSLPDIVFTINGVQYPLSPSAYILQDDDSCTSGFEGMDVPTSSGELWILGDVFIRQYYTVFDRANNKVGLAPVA", "assay": "In vitro inhibitory effect was evaluated against pepsin, Expressed as IC50"}, "Cathepsin D": {"biological_target": "T3, Cathepsin D (Bos taurus, UniProt P80209)", "T3 sequence (P80209 whole entry)": "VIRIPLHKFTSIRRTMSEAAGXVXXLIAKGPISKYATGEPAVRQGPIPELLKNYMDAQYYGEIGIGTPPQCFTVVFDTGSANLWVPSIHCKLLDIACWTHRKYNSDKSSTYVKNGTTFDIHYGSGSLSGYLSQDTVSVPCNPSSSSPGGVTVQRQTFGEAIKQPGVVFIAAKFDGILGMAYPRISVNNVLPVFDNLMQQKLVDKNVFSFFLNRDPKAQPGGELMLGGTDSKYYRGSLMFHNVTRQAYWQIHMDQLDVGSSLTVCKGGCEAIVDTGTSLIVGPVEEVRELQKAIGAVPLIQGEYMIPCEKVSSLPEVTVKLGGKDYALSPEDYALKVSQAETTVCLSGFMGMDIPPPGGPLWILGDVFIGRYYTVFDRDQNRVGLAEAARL", "assay": "Inhibitory activity against cathepsin D (bovine), expressed as IC50"}, "[5]": {"biological_target": "T2, Angiotensin-converting enzyme", "assay": "Percent Inhibitory activity against angiotensin-converting enzyme (ACE) human at the concentration of 100000 nM"}, "[6]": {"biological_target": "T4, Renin (Rattus norvegicus) (UniProt P08424)", "T4 sequence (whole entry)": "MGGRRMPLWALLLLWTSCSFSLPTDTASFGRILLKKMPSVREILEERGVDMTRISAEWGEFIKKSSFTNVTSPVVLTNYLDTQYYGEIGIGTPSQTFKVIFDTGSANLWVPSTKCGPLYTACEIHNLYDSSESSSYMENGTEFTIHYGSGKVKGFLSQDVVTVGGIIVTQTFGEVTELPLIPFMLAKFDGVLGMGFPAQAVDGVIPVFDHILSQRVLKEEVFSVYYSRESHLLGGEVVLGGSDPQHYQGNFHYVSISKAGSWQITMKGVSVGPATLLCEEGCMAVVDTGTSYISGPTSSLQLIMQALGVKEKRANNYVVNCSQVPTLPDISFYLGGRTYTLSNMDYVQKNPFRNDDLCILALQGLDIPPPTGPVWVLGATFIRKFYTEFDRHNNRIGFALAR", "assay": "In vitro percent Inhibitory activity against rat plasma renin at the concentration of 100000 nM", "assay_type": "cell-free"}, "Pepsin A (Sus scrofa)": {"biological_target": "Pepsin A (Sus scrofa) (UniProt P00791)", "sequence (P00791 60-385 limits assumed)": "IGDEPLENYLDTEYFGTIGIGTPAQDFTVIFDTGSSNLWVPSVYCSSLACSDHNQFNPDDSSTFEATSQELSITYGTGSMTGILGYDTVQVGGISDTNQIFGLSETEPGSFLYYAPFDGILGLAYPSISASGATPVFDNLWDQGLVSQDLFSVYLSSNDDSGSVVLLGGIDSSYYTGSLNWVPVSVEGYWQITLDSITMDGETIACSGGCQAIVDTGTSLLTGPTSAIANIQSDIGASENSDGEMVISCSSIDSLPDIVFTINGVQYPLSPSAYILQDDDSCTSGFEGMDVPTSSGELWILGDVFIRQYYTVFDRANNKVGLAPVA", "assay": "Percent Inhibitory activity against pepsin at the concentration of 100000 nM"}},
  "data": [
    {"compound": "CC(C)[C@@H](O)C[C@H](O)[C@H](CC1CCCCC1)NC(=O)[C@H](Cc1cnc[nH]1)NC(=O)C1Cc2ccccc2N1", "note": "(stereo in doubt; 4)", "values": [
      {"measurement": "IC50", "setting": "Renin", "result": 880, "unit": "nM"}
    ]},
    {"compound": "CC(C)[C@@H](O)C[C@H](O)[C@H](CC1CCCCC1)NC(=O)[C@H](Cc1cnc[nH]1)NC(=O)[C@@H]1Cc2ccccc2CN1", "values": [
      {"measurement": "IC50", "setting": "Renin", "result": 420, "unit": "nM"}
    ]},
    {"compound": "CC(C)[C@@H](O)C[C@H](O)[C@H](CC1CCCCC1)NC(=O)[C@H](Cc1c[nH]cn1)NC(=O)c1cc2ccccc2cn1", "values": [
      {"measurement": "IC50", "setting": "Renin", "result": 790, "unit": "nM"}
    ]},
    {"compound": "CC(C)[C@@H](O)C[C@H](O)[C@H](CC1CCCCC1)NC(=O)[C@H](Cc1c[nH]cn1)NC(=O)c1cc2ccccc2o1", "values": [
      {"measurement": "IC50", "setting": "Renin", "result": 140, "unit": "nM"}
    ]},
    {"compound": "CC(C)[C@@H](O)C[C@H](O)[C@H](CC1CCCCC1)NC(=O)[C@H](Cc1c[nH]cn1)NC(=O)c1cc2cc(F)ccc2[nH]1", "values": [
      {"measurement": "IC50", "setting": "Renin", "result": 46, "unit": "nM"},
      {"measurement": "Delta SBP", "setting": "[1]", "result": -18, "unit": "mmHg"},
      {"measurement": "Delta SBP", "setting": "[2]", "result": -12, "unit": "mmHg"},
      {"measurement": "Delta SBP", "setting": "[3]", "result": -21, "unit": "mmHg"}
    ]},
    {"compound": "CC(=O)n1c(C(=O)N[C@@H](Cc2cnc[nH]2)C(=O)N[C@@H](CC2CCCCC2)[C@@H](O)C[C@H](O)C(C)C)cc2ccccc21", "values": [
      {"measurement": "IC50", "setting": "Renin", "result": 340, "unit": "nM"}
    ]},
    {"compound": "CC(C)[C@@H](O)C[C@H](O)[C@H](CC1CCCCC1)NC(=O)[C@H](Cc1c[nH]cn1)NC(=O)c1nc2ccccc2[nH]1", "values": [
      {"measurement": "IC50", "setting": "Renin", "result": 13, "unit": "nM"},
      {"measurement": "Delta SBP", "setting": "[1]", "result": -9, "unit": "mmHg"},
      {"measurement": "Delta SBP", "setting": "[2]", "result": -7, "unit": "mmHg"},
      {"measurement": "Delta SBP", "setting": "[3]", "result": -13, "unit": "mmHg"}
    ]},
    {"compound": "CC(C)[C@@H](O)C[C@H](O)[C@H](CC1CCCCC1)NC(=O)[C@H](Cc1cnc[nH]1)NC(=O)c1cc2cc(O)ccc2[nH]1", "values": [
      {"measurement": "IC50", "setting": "Renin", "result": 600, "unit": "nM"}
    ]},
    {"compound": "CC(C)[C@@H](O)C[C@H](O)[C@H](CC1CCCCC1)NC(=O)[C@H](Cc1cnc[nH]1)NC(=O)c1cc2ccccc2[nH]1", "values": [
      {"measurement": "IC50", "setting": "[4]", "result": "> 100000", "unit": "nM"},
      {"measurement": "IC50", "setting": "Pepsin A", "result": "> 100000", "unit": "nM"},
      {"measurement": "IC50", "setting": "Cathepsin D", "result": "> 100000", "unit": "nM"}
    ]},
    {"compound": "CC(C)[C@@H](O)C[C@H](O)[C@H](CC1CCCCC1)NC(=O)[C@H](Cc1c[nH]cn1)NC(=O)c1cc2ccccc2c(O)n1", "values": [
      {"measurement": "IC50", "setting": "Renin", "result": 48, "unit": "nM"},
      {"measurement": "Delta SBP", "setting": "[1]", "result": -5, "unit": "mmHg"},
      {"measurement": "Delta SBP", "setting": "[2]", "result": 2, "unit": "mmHg"},
      {"measurement": "Delta SBP", "setting": "[3]", "result": 1, "unit": "mmHg"}
    ]},
    {"compound": "CC(C)[C@@H](O)C[C@H](O)[C@H](CC1CCCCC1)NC(=O)[C@H](Cc1cnc[nH]1)N(C)C(=O)[C@H](Cc1ccccc1)NC(=O)N1CCC(O)CC1", "values": [
      {"measurement": "IC50", "setting": "Renin", "result": 0.68, "unit": "nM"}
    ]},
    {"compound": "CC(C)[C@@H](O)C[C@H](O)[C@H](CC1CCCCC1)NC(=O)[C@H](Cc1c[nH]cn1)NC(=O)c1cc2cc(Cl)ccc2[nH]1", "values": [
      {"measurement": "IC50", "setting": "Renin", "result": 260, "unit": "nM"}
    ]},
    {"compound": "CC(C)[C@@H](O)C[C@H](O)[C@H](CC1CCCCC1)NC(=O)[C@H](Cc1cnc[nH]1)NC(=O)c1cc2cccnc2[nH]1", "values": [
      {"measurement": "IC50", "setting": "Renin", "result": 800, "unit": "nM"}
    ]},
    {"compound": "CC(C)[C@@H](O)C[C@H](O)[C@H](CC1CCCCC1)NC(=O)[C@H](Cc1cnc[nH]1)NC(=O)c1cc2ccccc2s1", "values": [
      {"measurement": "IC50", "setting": "Renin", "result": 8200, "unit": "nM"}
    ]},
    {"compound": "CC(C)[C@@H](O)C[C@H](O)[C@H](CC1CCCCC1)NC(=O)[C@H](Cc1c[nH]cn1)NC(=O)c1cc2ccccc2[nH]1", "values": [
      {"measurement": "Delta SBP", "setting": "[1]", "result": -12, "unit": "mmHg"},
      {"measurement": "Delta SBP", "setting": "[2]", "result": -13, "unit": "mmHg"},
      {"measurement": "inhibition", "setting": "[5]", "result": 6, "unit": "%"},
      {"measurement": "Delta SBP", "setting": "[3]", "result": -15, "unit": "mmHg"},
      {"measurement": "inhibition", "setting": "[6]", "result": 41.1, "unit": "%"},
      {"measurement": "inhibition", "setting": "Pepsin A (Sus scrofa)", "result": 5.6, "unit": "%"}
    ]},
    {"compound": "CC(C)[C@@H](O)C[C@H](O)[C@H](CC1CCCCC1)NC(=O)[C@H](Cc1cnc[nH]1)NC(=O)C1Cc2ccccc2N1", "note": "(stereo in doubt)", "values": [
      {"measurement": "IC50", "setting": "Renin", "result": 4400, "unit": "nM"}
    ]},
    {"compound": "CC(C)[C@@H](O)C[C@H](O)[C@H](CC1CCCCC1)NC(=O)[C@H](Cc1c[nH]cn1)NC(=O)c1ccc[nH]1", "values": [
      {"measurement": "IC50", "setting": "Renin", "result": 3000, "unit": "nM"}
    ]}
  ]
}
